US4520022A, “Substituted vinyl cephalosporins” (priority 1983, dated 1985)
In brackets after ≈: the same amount, converted by molar mass. Read-outs that look alike come from different tables or passages of the source. Each block holds one molecule with its values, some of them ahead of it.

How the values were obtained:
[1] = test system: Gp Ib: S. aureus 193, BX-1633-2 A9606, A15092, Russell, A9602; details: Staphylococcus aureus
S. aureus Smith = assay: Protective dose, mice infected with lethal inoculum, oral treatment, S. aureus Smith; assay type: in vivo; details: Staphylococcus aureus, po, 120 h, read-out: Protective dose (PD50), S. aureus Smith
in vivo = details: mouse; for half-life: T1/2
E. coli Juhl = assay: Protective dose, mice infected with lethal inoculum, oral treatment, E. coli Juhl; assay type: in vivo; details: for ED50: Escherichia coli, po, 120 h, read-out: Protective dose (PD50), E. coli Juhl
[2] = test system: Gp Ia: S. aureus Smith A9537, A9497, Terajima, A9534, A9601; details: Staphylococcus aureus, read-out: Minimum Inhibitory Concentration Gp Ia, Mueller-Hinton agar, average of five organisms
S. pneumoniae = assay: In vitro activity against Streptococci (MIC), S. pneumoniae; assay type: cell-based; details: Streptococcus pneumoniae, Compound 9 lot 2
N. gonorrheae = assay: In vitro activity against Neisseria (MIC), N. gonorrheae; assay type: cell-based
H. influenzae = assay: In vitro activity against Haemophilis (MIC), H. influenzae; assay type: cell-based; details: Haemophilus influenzae, Compound 9 lot 2
S. pyogenes = assay: In vitro activity against Streptococci (MIC), S. pyogenes; assay type: cell-based; details: Streptococcus pyogenes, Compound 9 lot 2
N. meningitidis = assay: In vitro activity against Neisseria (MIC), N. meningitidis; assay type: cell-based
[3] = mouse, in vivo
[4] = read-out: Minimum Inhibitory Concentration Gp Ib, Mueller-Hinton agar, run 1, average of five organisms
[5] = oral, 50% survival for 5 days, groups of 5 mice

Compound: CC/C=C\C1=C(C(=O)[O-])N2C(=O)[C@@H](NC(=O)[C@H](N)c3ccc(O)cc3)[C@H]2SC1.[Na+]
MIC ([1]; read-out: Minimum Inhibitory Concentration Gp Ib): 1.4 µg/mL
ED50 (S. aureus Smith): 0.32 mg/kg
AUC (in vivo; im, 20 mg/kg, AUC*, Run 1, * mean of 3 runs): 20000 ng·h/mL
Cmax (in vivo; im, 20 mg/kg): 25000 ng/mL
half-life (in vivo; im, 20 mg/kg): 0.74 h
AUC (in vivo; po, 20 mg/kg, AUC*, Run 1, * mean of 3 runs): 41000 ng·h/mL
Cmax (in vivo; po, 20 mg/kg): 13000 ng/mL
half-life (in vivo; po, 20 mg/kg): 2 h
AUC (in vivo; po, 100 mg/kg, AUC): 150000 ng·h/mL
Cmax (in vivo; po, 100 mg/kg): 51000 ng/mL
half-life (in vivo; po, 100 mg/kg): 1.9 h
ED50 (E. coli Juhl): 3 mg/kg
MIC ([2]; run 1): 0.4 µg/mL

MIC [1, 4]: 0.7 µg/mL (≈ 1.5 µM)
MIC (S. pneumoniae; S. pneumoniae A9585, read-out: MIC): 0.4 µg/mL (≈ 0.859 µM)
MIC (S. pneumoniae; S. pneumoniae A15069, read-out: MIC): 0.2 µg/mL (≈ 0.43 µM)
MIC (S. pneumoniae; S. pneumoniae A20759, read-out: MIC): 0.4 µg/mL (≈ 0.859 µM)
MIC (S. pneumoniae; S. pneumoniae Type I, read-out: MIC): 0.2 µg/mL (≈ 0.43 µM)
MIC (S. pneumoniae; S. pneumoniae Type II, I, III, A9585, A15069, read-out: MIC, Geometric Mean): 0.23 µg/mL (≈ 0.494 µM)
MIC (S. pneumoniae; S. pneumoniae Type II, read-out: MIC): 0.2 µg/mL (≈ 0.43 µM)
MIC (S. pneumoniae; S. pneumoniae Type III, read-out: MIC): 0.2 µg/mL (≈ 0.43 µM)
MIC (N. gonorrheae; N. gonorrheae A20142, Compound 9 lot 2): > 100 µg/mL
MIC (N. gonorrheae; N. gonorrheae A20143, Compound 9 lot 2): > 100 µg/mL
MIC (N. gonorrheae; N. gonorrheae A20154, Compound 9 lot 2): > 100 µg/mL
MIC (N. gonorrheae; N. gonorrheae A20155, Compound 9 lot 2): > 100 µg/mL
MIC (N. gonorrheae; read-out: MIC): > 100 µg/mL
MIC (N. gonorrheae; read-out: MIC, Geometric Mean): > 100 µg/mL
MIC (H. influenzae; H. influenzae A9729, read-out: MIC): > 100 µg/mL
MIC (H. influenzae; H. influenzae A9833, read-out: MIC): > 100 µg/mL
MIC (H. influenzae; H. influenzae A20177, read-out: MIC): > 100 µg/mL
MIC (H. influenzae; H. influenzae A20193, read-out: MIC): > 100 µg/mL
MIC (H. influenzae; H. influenzae A21523, read-out: MIC): > 100 µg/mL
MIC (H. influenzae; H. influenzae A22157, read-out: MIC): 25 µg/mL (≈ 53.7 µM)
MIC (H. influenzae; H. influenzae A22481, read-out: MIC): 25 µg/mL (≈ 53.7 µM)
MIC (H. influenzae; H. influenzae A22482, read-out: MIC): > 100 µg/mL
MIC (H. influenzae; H. influenzae A22483, read-out: MIC): > 100 µg/mL
MIC (H. influenzae; H. influenzae A22491, read-out: MIC): 25 µg/mL (≈ 53.7 µM)
MIC (H. influenzae; H. influenzae, seven strains above, read-out: MIC, Geometric Mean): > 100 µg/mL
MIC (S. pyogenes; S. pyogenes A9604, read-out: MIC): 0.2 µg/mL (≈ 0.43 µM)
MIC (S. pyogenes; S. pyogenes A15040, read-out: MIC): 0.2 µg/mL (≈ 0.43 µM)
MIC (S. pyogenes; S. pyogenes A20065, read-out: MIC): 0.2 µg/mL (≈ 0.43 µM)
MIC (S. pyogenes; S. pyogenes A20201, read-out: MIC): 0.2 µg/mL (≈ 0.43 µM)
MIC (S. pyogenes; S. pyogenes Dick, read-out: MIC): 0.2 µg/mL (≈ 0.43 µM)
MIC (S. pyogenes; S. pyogenes S-23, Dick, A9604, A20065, A15040, read-out: MIC, Geometric Mean): 0.2 µg/mL (≈ 0.43 µM)
MIC (S. pyogenes; S. pyogenes S-23, read-out: MIC): 0.2 µg/mL (≈ 0.43 µM)
AUC (in vivo; im, 20 mg/kg, AUC*): 52000 ng·h/mL
Cmax (in vivo; im, 20 mg/kg): 31000 ng/mL
half-life (in vivo; im, 20 mg/kg): 0.99 h
AUC (in vivo; po, 20 mg/kg, AUC*): 38000 ng·h/mL
Cmax (in vivo; po, 20 mg/kg): 12000 ng/mL
half-life (in vivo; po, 20 mg/kg): 2.7 h
AUC (in vivo; po, 100 mg/kg, AUC): 81000 ng·h/mL
Cmax (in vivo; po, 100 mg/kg): 41000 ng/mL
half-life (in vivo; po, 100 mg/kg): 2.7 h
MIC (N. meningitidis; N. meningitidis A21487, Compound 9 lot 2): > 100 µg/mL
MIC (N. meningitidis; N. meningitidis A21496, Compound 9 lot 2): > 100 µg/mL
MIC (N. meningitidis; N. meningitidis A21497, Compound 9 lot 2): > 100 µg/mL
MIC (N. meningitidis; Neisseria meningitidis, read-out: MIC): > 100 µg/mL
MIC (N. meningitidis; Neisseria meningitidis, read-out: MIC, Geometric Mean): > 100 µg/mL
MIC ([2]; run 1): 0.2 µg/mL (≈ 0.43 µM)
Compound: N[C@@H](C(=O)N[C@@H]1C(=O)N2C(C(=O)O)=C(/C=C\Cc3ccccc3)CS[C@H]12)c1ccc(O)cc1 [Compound 15, 7β-[D-2-Amino-2-(p-hydroxyphenyl)acetamido]-3-[(Z)-3-phenyl-1-propen-1-yl]-3-cephem-4-carboxylic acid]

MIC [1, 4]: 2.7 µg/mL (≈ 5.53 µM)
AUC (in vivo; im, 20 mg/kg, AUC*): 9600 ng·h/mL
Cmax (in vivo; im, 20 mg/kg): 16000 ng/mL
half-life (in vivo; im, 20 mg/kg): 0.54 h
AUC (in vivo; po, 20 mg/kg, AUC*): 6600 ng·h/mL
Cmax (in vivo; po, 20 mg/kg): 1700 ng/mL
half-life (in vivo; po, 20 mg/kg): 2.6 h
AUC (in vivo; po, 100 mg/kg, AUC): 19000 ng·h/mL
Cmax (in vivo; po, 100 mg/kg): 4400 ng/mL
half-life (in vivo; po, 100 mg/kg): 3.2 h
MIC ([2]; run 1): 0.61 µg/mL (≈ 1.25 µM)
Compound: N[C@@H](C(=O)N[C@@H]1C(=O)N2C(C(=O)O)=C(C=CCSc3cnn[nH]3)CS[C@H]12)c1ccc(O)cc1 [Compound 21, 7β-[D-2-Amino-2-(p-hydroxyphenyl)acetamido]-3-[3-(1H-1,2,3-triazol-5-yl)thio-1-propen-1-yl]-3-cephem-4-carboxylic Acid]
oral absorption ([3]; po): Uniformly good oral absorption is reflected except for Compound No. 21

Compound: C/C=C\C1=C(C(=O)O)N2C(=O)[C@@H](NC(=O)[C@H](N)c3ccccc3)[C@H]2SC1 [Compound 24, 7β-(D(-)-2-Amino-2-phenylacetamido)-3-[(Z)-1-propen-1-yl]-3-cephem-4-carboxylic acid]
MIC [1, 4]: 0.92 µg/mL (≈ 2.46 µM)
MIC ([1]; read-out: Minimum Inhibitory Concentration Gp Ib, Mueller-Hinton agar, run 2, average of five organisms): 0.92 µg/mL (≈ 2.46 µM)
ED50 (S. aureus Smith; [5]): 0.18 mg/kg
AUC (in vivo; im, 20 mg/kg, AUC*): 22000 ng·h/mL
Cmax (in vivo; im, 20 mg/kg): 31000 ng/mL
half-life (in vivo; im, 20 mg/kg): 0.5 h
AUC (in vivo; po, 20 mg/kg, AUC*): 15000 ng·h/mL
Cmax (in vivo; po, 20 mg/kg): 7800 ng/mL
half-life (in vivo; po, 20 mg/kg): 1.3 h
AUC (in vivo; po, 100 mg/kg, AUC): 84000 ng·h/mL
Cmax (in vivo; po, 100 mg/kg): 40000 ng/mL
half-life (in vivo; po, 100 mg/kg): 1.1 h
ED50 (E. coli Juhl; [5]): 1.5 mg/kg
activity against the Gram- infection (E. coli Juhl; in words): more active against the Gram- infection
T1/2 ([3]; im, 20 mg/kg): 0.58 h
T1/2 ([3]; po, 20 mg/kg): 0.69 h
T1/2 ([3]; po, 100 mg/kg): 1.1 h
MIC ([2]; run 1): 0.23 µg/mL (≈ 0.616 µM)
MIC ([2]; run 2): 0.3 µg/mL (≈ 0.803 µM)
